Literature values, collected in US20070110808A1, “Extended release osmo-microsealed formulation” (ALEMBIC LIMITED, priority 2003, published 2007).

Settings: compressed tablets, 75 to 350 mg/day in divided doses two or three times a day

patients experiencing nausea: about forty five
patients in whom vomiting occurs: about seventeen
SMILES: COc1ccc(C(CN(C)C)C2(O)CCCCC2)cc1.Cl (centres unmarked) [Venlafaxine Hydrochloride, 1-[2-(dimethylamino)-1-(4-methoxyphenyl)ethyl]cyclohexanol Hydrochloride]
